Experimental data as given in patent US12036231B2, “Cyclic dinucleotides as agonists of stimulator of interferon gene dependent signalling” (Board of Regents, The University of Texas System, priority 2017, dated 2024).

Assays:
STING receptor [1] = target: T1, STING receptor (Homo sapiens, UniProt Q86WV6, G230A/H232R/R293Q/R71H); assay: THP-1 Dual assay, IRF pathway (secreted Lucia luciferase reporter; IRF3 activation); format: cell-based; conditions: 18 h incubation
T1 construct: host or cells: THP-1 Dual cells (human monocytic THP-1 with NF-kB-SEAP and IRF-Lucia reporters)
Description: (§1) The INVIVOGEN® THP-1 Dual™ assay (catalog code: thpd-nfis) was used to evaluate the listed compounds as agonist of the STING receptor. The THP-1 Dual™ cells are derived from the human monocytic cell line THP-1 by stable integration of two inducible reporter constructs. This assay enables simultaneous study of the two main signaling pathways for STING: (a) the NF-κB pathway, by monitoring the activity of secreted embryonic alkaline phosphatase (SEAP); and (b) the Interferon regulatory factor (IRF) pathway, by assessing the activity of a secreted luciferase (Lucia™).
(§2) The procedure as set forth by the manufacturer was followed, with the following modifications: (1) plates are incubated 18 h after addition of cell suspension, and (2) the optional differentiation step is not employed. Tables 1 and 2. Biological Activity

STING receptor [2] = target: T1, STING receptor; assay: THP-1 Dual assay, NF-κB pathway (SEAP reporter); format: cell-based; conditions: 18 h incubation
Description: as §1, §2

MT4-2D cells = assay: Mouse Ductal Pancreatic Cancer Assay (subcutaneous MT4-2D tumors, intra-tumoral injection); format: in vivo, C57BL/6J mice; conditions: 5 ug intra-tumorally on day 15
Experimental: Mouse Ductal Pancreatic Cancer Assay
The procedure of Boj et a. […] 2.5×10^5 MT4-2D cells were injected subcutaneously on the right flank of male 6 week old C57BL/6J mice. 5 ug of the indicated STING agonist was injected intra-tumorally on day 15 in a volume of 50 ul.

[3] = day 0 post challenge (before dosing)
[4] = day 4 post challenge (before dosing)
[5] = day 6 post challenge (before dosing)
[6] = day 8 post challenge (before dosing)
[7] = day 10 post challenge (before dosing)
[8] = day 12 post challenge (before dosing)
[9] = day 14 post challenge (before dosing)
[10] = day 15 post challenge (day of dosing)

T1 sequence (Q86WV6 whole entry R71H/G230A/H232R/R293Q): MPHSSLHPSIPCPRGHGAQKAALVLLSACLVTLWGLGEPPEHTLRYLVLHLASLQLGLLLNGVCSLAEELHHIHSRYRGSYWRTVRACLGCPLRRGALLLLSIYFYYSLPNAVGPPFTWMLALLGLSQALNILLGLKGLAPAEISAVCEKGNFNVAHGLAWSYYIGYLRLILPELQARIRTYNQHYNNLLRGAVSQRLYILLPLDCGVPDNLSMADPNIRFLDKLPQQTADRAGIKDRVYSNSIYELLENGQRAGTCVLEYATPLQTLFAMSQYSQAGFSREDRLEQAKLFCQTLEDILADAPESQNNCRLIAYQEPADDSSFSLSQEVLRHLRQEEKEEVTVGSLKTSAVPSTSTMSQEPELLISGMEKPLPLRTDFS

Row | Compound | Fold induction of IRF3 activation in THP-1 Dual cells (STING receptor [1]; 1 mg/mL STING agonist) | Fold induction of IRF3 activation in THP-1 Dual cells (STING receptor [1]; 5 mg/mL STING agonist) | Fold induction of NF-κB activation THP-1 Dual cells (STING receptor [2]; 5 mg/mL STING agonist) | Fold induction of IRF3 activation in THP-1 Dual cells (STING receptor [1]; 0.1 mg/mL STING agonist) | Fold induction of IRF3 activation in THP-1 Dual cells (STING receptor [1]; 0.5 mg/mL STING agonist) | Fold induction of IRF3 activation in THP-1 Dual cells (STING receptor [1]; 10 mg/mL STING agonist) | Fold induction of NF-κB activation THP-1 Dual cells (STING receptor [2]; 0.1 mg/mL STING agonist) | Fold induction of NF-κB activation THP-1 Dual cells (STING receptor [2]; 0.5 mg/mL STING agonist) | Fold induction of NF-κB activation THP-1 Dual cells (STING receptor [2]; 1 mg/mL STING agonist) | Fold induction of NF-κB activation THP-1 Dual cells (STING receptor [2]; 10 mg/mL STING agonist) | Tumor Vol (MT4-2D cells; [3]) | Tumor Vol (MT4-2D cells; [4]) | Tumor Vol (MT4-2D cells; [5]) | Tumor Vol (MT4-2D cells; [6]) | Tumor Vol (MT4-2D cells; [7]) | Tumor Vol (MT4-2D cells; [8]) | Tumor Vol (MT4-2D cells; [9]) | Tumor Vol (MT4-2D cells; [10]) | Tumor Vol (MT4-2D cells; day 16 post challenge) | Tumor Vol (MT4-2D cells; day 22 post challenge) | also measured
1 | Nc1ncnc2c1ccn2[C@@H]1O[C@@H]2COP(=O)(S)O[C@@H]3[C@H](O)[C@@H](CO[P@@](=O)(S)O[C@@H]2[C@H]1O)O[C@H]3n1cnc2c(N)ncnc21 (single isomer, unassigned) [Example 1a] | 9.77 fold | 112.64 fold | 2.77 fold |  |  |  |  |  |  |  |  |  |  |  |  |  |  |  |  |  | 
2 | Nc1ncnc2c1ccn2[C@@H]1O[C@@H]2COP(=O)(S)O[C@@H]3[C@H](O)[C@@H](CO[P@@](=O)(S)O[C@@H]2[C@H]1O)O[C@H]3n1cnc2c(N)ncnc21 (single isomer, unassigned) [Example 1b] | 3.52 fold | 25.91 fold | 1.29 fold | 0.99 fold | 1.88 fold | 87.63 fold | 0.97 fold | 0.99 fold | 1.01 fold | 3.71 fold |  |  |  |  |  |  |  |  |  |  | 
3 | Nc1nc2c(ncn2[C@@H]2O[C@@H]3COP(=O)(O)O[C@H]4[C@@H](O)[C@H](n5cnc6c(=O)[nH]c(N)nc65)O[C@@H]4COP(=O)(O)O[C@H]3[C@H]2O)c(=O)[nH]1 [3′,5′-c-di-GMP, cyclic di-GMP (guanosine 5′-monophosphate), reference compound] | 1.32 fold | 2.87 fold | 1.02 fold | 1.07 fold | 1.26 fold | 5.93 fold | 0.99 fold | 0.98 fold | 0.97 fold | 1.10 fold |  |  |  |  |  |  |  |  |  |  | 
4 | Nc1ncnc2c1ncn2[C@@H]1O[C@@H]2COP(=O)(S)O[C@@H]3[C@H](O)[C@@H](CO[P@@](=O)(S)O[C@H]2[C@H]1F)O[C@H]3n1cnc2c(N)ncnc21 (stereo partly drawn) [Example 2a, (1R,6R,8R,9R,10R,12R,15R,17R,18R)-8,17-di(6-amino-9H-purin-9-yl)-9-fluoro-18-hydroxy-3,12-dimercapto-2,4,7,11,13,16-hexaoxa-3λ^5, 12λ^5-diphosphatricyclo-[13.2.1.0^6,10]octadecane-3,12-dione] |  |  |  |  |  |  |  |  |  |  | 0.0 mm^3 | 29.2 mm^3 | 64.3 mm^3 | 84.3 mm^3 | 103.3 mm^3 | 125.9 mm^3 | 113.8 mm^3 | 132.1 mm^3 | 134.0 mm^3 | 91.6 mm^3 | Tumor Vol (MT4-2D cells; day 17 post challenge): 122.7 mm^3; Tumor Vol (MT4-2D cells; day 18 post challenge): 82.8 mm^3; Tumor Vol (MT4-2D cells; day 20 post challenge): 72.8 mm^3; Tumor Vol (MT4-2D cells; day 25 post challenge): 124.0 mm^3; Tumor Vol (MT4-2D cells; day 27 post challenge): 142.0 mm^3; Tumor Vol (MT4-2D cells; day 29 post challenge): 163.1 mm^3; Tumor Vol (MT4-2D cells; day 32 post challenge): 217.7 mm^3
5 | Nc1ncnc2c1ncn2[C@@H]1O[C@@H]2COP(=O)(S)O[C@@H]3[C@H](O)[C@@H](CO[P@@](=O)(S)O[C@H]2[C@H]1F)O[C@H]3n1cnc2c(N)ncnc21 (stereo partly drawn) [Example 2b, (1R,6R,8R,9R,10R,12R,15R,17R,18R)-8,17-di(6-amino-9H-purin-9-yl)-9-fluoro-18-hydroxy-3,12-dimercapto-2,4,7,11,13,16-hexaoxa-3λ^5, 12λ^5-diphosphatricyclo-[13.2.1.0^6,10]octadecane-3,12-dione] |  |  |  |  |  |  |  |  |  |  | 0.0 mm^3 | 28.4 mm^3 | 53.9 mm^3 | 66.5 mm^3 | 87.4 mm^3 | 98.3 mm^3 | 106.6 mm^3 | 114.7 mm^3 | 130.8 mm^3 | 64.9 mm^3 | Tumor Vol (MT4-2D cells; day 17 post challenge): 128.3 mm^3; Tumor Vol (MT4-2D cells; day 18 post challenge): 90.4 mm^3; Tumor Vol (MT4-2D cells; day 20 post challenge): 115.3 mm^3; Tumor Vol (MT4-2D cells; day 25 post challenge): 70.4 mm^3; Tumor Vol (MT4-2D cells; day 27 post challenge): 80.7 mm^3; Tumor Vol (MT4-2D cells; day 29 post challenge): 99.6 mm^3; Tumor Vol (MT4-2D cells; day 32 post challenge): 102.6 mm^3
6 | Nc1ncnc2c1ccn2[C@@H]1O[C@@H]2CO[P@@](=O)(S)O[C@@H]3[C@@H](O)[C@H](n4cnc5c(N)ncnc54)O[C@@H]3COP(=O)(S)O[C@@H]1[C@@H]2O (stereo partly drawn) [Example 3b, (1R,6R,8R,9R,10R,12R,15R,17R,18R)-17-(4-amino-7H-pyrrolo[2,3-d]pyrimidin-7-yl)-8-(6-amino-9H-purin-9-yl)-9,18-dihydroxy-3,12-dimercapto-2,4,7,11,13,16-hexaoxa-3λ^5, 12λ^5-diphosphatricyclo[13.2.1.0^6,10]octadecane-3,12-dione] | 1.56 fold | 5.05 fold | 1.08 fold | 1.38 fold | 1.48 fold | 6.70 fold | 0.98 fold | 0.99 fold | 1.00 fold | 1.14 fold |  |  |  |  |  |  |  |  |  |  | 
7 | Nc1ncnc2c1ncn2[C@@H]1O[C@@H]2COP(O)(=S)O[C@@H]3C(O)[C@@H](COP(O)(=S)O[C@H]2[C@H]1O)O[C@H]3n1cnc2c(N)ncnc21 (stereo partly drawn) [ML-RR-CDA, dithio-[Rp,Sp]-cyclic-[A(2′,5′)p-A(3′,5′)p], reference compound] |  |  |  |  |  |  |  |  |  |  | 0.0 mm^3 | 19.0 mm^3 | 56.3 mm^3 | 81.9 mm^3 | 84.5 mm^3 | 107.3 mm^3 | 110.9 mm^3 | 125.6 mm^3 | 193.2 mm^3 | 147.2 mm^3 | Tumor Vol (MT4-2D cells; day 25 post challenge): 154.0 mm^3; Tumor Vol (MT4-2D cells; day 27 post challenge): 241.4 mm^3; Tumor Vol (MT4-2D cells; day 29 post challenge): 198.5 mm^3; Tumor Vol (MT4-2D cells; day 32 post challenge): 250.1 mm^3
